Results as given in PubChem BioAssay (NCI).
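48-hour exposure; five concentrations; linearly interpolated endpoints. GI50 marks 50% less growth. Definition used: TGI = concentration required for complete inhibition of growth.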

How the values were obtained:
Assay in all cases: NCI anticancer screen, dose series, 48 h
ACHN renal = test system: ACHN renal
COLO 205 colon = test system: COLO 205 colon
SK-OV-3 ovarian = test system: SK-OV-3 ovarian
RPMI-8226 leukemia = test system: RPMI-8226 leukemia
SK-MEL-5 melanoma = test system: SK-MEL-5 melanoma
KM12 colon = test system: KM12 colon
SF-295 CNS = test system: SF-295 CNS
SF-268 CNS = test system: SF-268 CNS
MCF7 breast = test system: MCF7 breast
NCI-H23 lung = test system: NCI-H23 lung

SMILES | GI50 (ACHN renal) [µM] | TGI (ACHN renal) [µM] | GI50 (COLO 205 colon) [µM] | TGI (COLO 205 colon) [µM] | GI50 (SK-OV-3 ovarian) [µM] | TGI (SK-OV-3 ovarian) [µM] | GI50 (RPMI-8226 leukemia) [µM] | TGI (RPMI-8226 leukemia) [µM] | GI50 (SK-MEL-5 melanoma) [µM] | TGI (SK-MEL-5 melanoma) [µM] | GI50 (KM12 colon) [µM] | TGI (KM12 colon) [µM] | GI50 (SF-295 CNS) [µM] | TGI (SF-295 CNS) [µM] | GI50 (SF-268 CNS) [µM] | TGI (SF-268 CNS) [µM] | GI50 (MCF7 breast) [µM] | TGI (MCF7 breast) [µM] | GI50 (NCI-H23 lung) [µM] | TGI (NCI-H23 lung) [µM]
CCN(Cc1nc2cc(C(F)(F)F)ccc2nc1-c1ccccc1)c1ccc(OC)c(OC)c1 | 16.4 | 44 | 31.4 | > 100 | 39.8 | > 100 | 2.51 | 11.2 | 13.9 | 28 | 19.9 | 43.6 | 15.7 | 31.8 | 26.1 | > 100 | 25.9 | > 100 | 13.5 | 34.2
CCCC[P+](c1ccccc1)(c1ccccc1)c1ccccc1 | 29 | > 100 | 1.24 | 7.15 | 13.4 | > 100 | 0.193 | 0.869 | 0.534 | 6.63 | 0.944 | 66.3 | 5.29 | 37.3 | 5.66 | > 100 | 1.33 | > 100 | 2.57 | 32.6
CN(C)CCOc1nc2c3cccnc3cc(-c3cccc(Cl)c3)c2c2ncccc12 | 0.698 | 2.45 | 1.23 | 2.74 | 5.05 | 18.4 | 2.34 | 6.24 | 1.78 | 3.2 | 1.39 | 3.03 | 1.13 | 2.5 | 1.17 | 4.37 | 1.28 | 2.68 | 1.51 | 3.34
CS(=O)(=O)OCCN(CCOS(C)(=O)=O)c1ccc(C=Nc2ccc3oc(=O)ccc3c2)cc1 | – | 4.91 | – | 10.3 | – | 9.92 | – | 49.1 | – | 32.8 | – | 30.3 | – | 42.2 | – | 74.3 | – | > 93.5 | – | 17.5
CCn1c(-c2nonc2N)nc2c(C#CC(C)(C)O)nc(O[C@@H](CN)c3ccccc3)cc21 | 0.689 | 4.73 | 0.123 | 0.646 | 0.073 | 4.57 | 0.645 | 2.7 | 0.413 | 0.892 | 0.0578 | 1.51 | 0.0333 | 1 | 0.574 | 1.98 | 0.055 | 2.58 | 0.344 | 2.97
